pIC50: −log10 of the molar value.
Columns and labels:
[1] = test system: rat dorsal root ganglion neurons; assay: Patch clamp (current clamp) of acid-induced action potential generation in rat dorsal root ganglion neurons in primary culture; format: cell-based; conditions: 1 μM, current-clamp mode, n=3
Description: The acid-evoked action potentials were recorded in the presence and absence of Compound A (1 μM) or Compound H (1 μM) using the whole cell configuration of the patch clamp method (current clamp mode).
Sensory neurons can be isolated and cultured in vitro from different animal species. The most widely used protocols use sensory neurons isolated from neonatal (Eckert, et al. (1997) J Neurosci Methods 77:183-190) and embryonic (Vasko, et al. (1994) J Neurosci 14:4987-4997) rat. […] Electrophysiology is performed similarly as described above in Example 2. […] In the current-clamp mode, change in the trans-membrane potential are recorded. Under acidic conditions (e.g., pH 6.5) the membrane depolarizes, leading to the firing of action potentials, as shown in FIGS. 7A and 7B.

[2] = test system: CFA-induced inflammatory pain; assay: CFA model of chronic inflammatory pain, hindpaw weight bearing (Incapacitance Tester); format: in vivo, rat; conditions: 24 h after CFA, 60 min after drug injection, n=7-8
Description: Rats (body weight 260-300 g) were given a s.c. injection of CFA (50% in saline, 100 μl, Sigma) into the plantar surface of the hindpaw under brief halothane anaesthesia. After 24 h, they were then tested for hindpaw weight bearing responses, as assessed using an Incapacitance Tester (Linton Instrumentation, UK), (Zhu et al., 2005). The instrument incorporates a dual channel scale that separately measures the weight of the animal distributed to each hindpaw. While normal rats distribute their body weight equally between the two hindpaws (50-50), the discrepancy of weight distribution between an injured and non-injured paw is a natural reflection of the discomfort level in the injured paw (nocifensive behavior). The rats were placed in the plastic chamber designed so that each hindpaw rested on a separate transducer pad. […] For each rat, three readings from each paw were taken and then averaged. Side-to-side weight bearing difference was calculated as the average of the absolute value of the difference between two hindpaws from three trials (right paw reading-left paw reading).
Hindpaw weight bearing responses were measured in male Sprague-Dawley rats for 2-3 days prior to being given a hindpaw injection of CFA. Twenty-four hours later baseline responses were measured and rats were then administered Compound A (5, 10 and 20 mg/kg, i.p.), Compound H (10, 30 and 60 mg/kg) and morphine (3, 6 and 10 mg/kg). Weight bearing responses were then measured at 30, 60 and 120 min after drug or vehicle injection (data shown at 60 min.). […] Data are expressed as mean +/−SEM. *P<0.05, **P<0.01, *** P<0.001 vs baseline; +++: P<0.001 vs vehicle. All groups n=7-8.

[3] = target: T1, hASIC1a (Homo sapiens, UniProt P78348); assay: Calcium-imaging (FLIPR, Fluo-4) of acid (MES)-induced calcium response in ASIC1a expressing HEK293 cells; format: cell-based; set-up: expressed in transfected cells; host or cells: HEK293; conditions: calcium mobilization assay, MES-induced calcium response, HEK293, n=3-7
T1 sequence (P78348 1-528): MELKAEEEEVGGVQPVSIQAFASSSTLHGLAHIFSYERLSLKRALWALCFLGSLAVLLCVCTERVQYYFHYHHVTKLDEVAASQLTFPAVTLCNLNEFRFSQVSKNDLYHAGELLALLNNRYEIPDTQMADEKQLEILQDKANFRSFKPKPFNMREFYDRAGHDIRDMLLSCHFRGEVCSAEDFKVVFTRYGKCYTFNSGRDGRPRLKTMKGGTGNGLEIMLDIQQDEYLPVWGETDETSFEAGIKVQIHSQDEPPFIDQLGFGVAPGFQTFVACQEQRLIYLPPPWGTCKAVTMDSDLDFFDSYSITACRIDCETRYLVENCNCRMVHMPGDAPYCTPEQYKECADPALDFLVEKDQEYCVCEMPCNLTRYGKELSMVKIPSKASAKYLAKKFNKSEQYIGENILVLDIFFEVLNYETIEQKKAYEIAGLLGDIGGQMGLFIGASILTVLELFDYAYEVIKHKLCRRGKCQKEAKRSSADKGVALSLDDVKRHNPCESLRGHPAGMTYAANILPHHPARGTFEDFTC
Description: ASIC1a expressing HEK293 cells are grown in culture medium (DMEM with 10% FBS), in polystyrene culture flasks ([…]) at 37° C. in a humidified atmosphere of 5% CO2. Confluency of cells should be 80-90% on day of plating. Cells are rinsed with 10 ml of PBS and re-suspended by addition of culture medium and trituration with a 25 ml pipette.
The cells are seeded at a density of approximately 1×10^6 cells/ml (100 μl/well) in black-walled, clear bottom, 96-well plates pre-treated with 10 mg/l poly-D-lysin (75 μl/well for ≧30 min). Plated cells were allowed to proliferate for 24 h before loading with dye.
Fluo-4/AM (1 mg, Molecular Probes) is dissolved in 912 μl DMSO. The Fluo-4/AM stock solution (1 mM) is diluted with culture medium to a final concentration of 2 μM (loading solution).
The culture medium is aspirated from the wells, and 50 μl of the Fluo-4/AM loading solution is added to each well. The cells are incubated at 37° C. for 30 min.
After the loading period, the loading solution is aspirated and the cells are washed twice with 100 μl modified Assay Buffer (145 mM NaCl, 5 mM KCl, 5 mM CaCl2, 1 mM MgCl2, 10 mM HEPES, pH 7.4) to remove extracellular dye. Following the second wash, 100 μl modified Assay Buffer is added to each well and the fluorescence is measured in FLIPR™ or FlexStation™ (Molecular Devices, USA), or any other suitable equipment known to the skilled in the art.
Temperature: Room temperature (20-22° C.)
First addition: 50 μl test solution at a rate of 30 μl/sec and a starting height of 100 μl.
Second addition: 50 μl MES solution (20 mM, 5 mM final concentration) at a rate of 35 μl/sec and a starting height of 150 μl.
Reading intervals: pre-incubation—10 sec×7 and 3 sec×3 antagonist phase—3 sec×17 and 10 sec×12
Addition plates (compound test plate and MES plate) are placed on the right and left positions in the FLIPR tray, respectively. Cell plates are placed in the middle position and the ASIC1a program is effectuated. FLIPR will then take the appropriate measurements in accordance with the interval settings above. Fluorescence obtained after stimulation is corrected for the mean basal fluorescence (in modified Assay Buffer).
The MES-induced peak calcium response, in the presence of test substance, is expressed relatively to the MES response alone. Test substances that block the MES-induced calcium response are re-tested in triplicates. Confirmed hits are picked for further characterization by performing full dose-response curves to determine potency of each hit compound as represented by the IC50 values (i.e., the concentration of the test substance which inhibits 50% of the MES-induced calcium response; see, for example, FIGS. 1A, 1B and 1C, and FIGS. 13A and 13B).

| pIC50 [3] | SMILES | effect on acid-induced membrane depolarization and action potential firing [1] | CFA-induced change in hindpaw weight bearing compared with vehicle [2] |
| --- | --- | --- | --- |
| 6.60 to 7.82 | CCN1CCc2c(-c3ccccc3)cc3c(c2C1)NC(=O)/C3=N/O [Compound H, 5-phenyl-6,7,8,9-tetrahydro-3-(hydroxyimino)-8-ethyl-1H-pyrrolo[3,2-h]isoquinoline-2(3H)-one] | inhibit the acid-induced membrane depolarization and reduces the ensuing rate of action potential firing | marked dose-dependent attenuation in the CFA-induced change in weight bearing |
| 6.70 to 7.00 | COc1ccc(F)cc1-c1cc2c(c3c1CCN(C)C3)NC(=O)/C2=N/O [Compound A, 5-(5-fluoro-2-methoxyphenyl)-6,7,8,9-tetrahydro-3-(hydroxyimino)-8-methyl-1H-pyrrolo[3,2-h]isoquinoline-2(3H)-one] | inhibit the acid-induced membrane depolarization and reduces the ensuing rate of action potential firing | marked dose-dependent attenuation in the CFA-induced change in weight bearing |
